Experimental data taken from ChEMBL document CHEMBL1133071, “Potent in vitro methicillin-resistant Staphylococcus aureus activity of 2-(1H-indol-3-yl)quinoline derivatives” (2000).
Converted amounts (≈) assume the structure as drawn.

Assays:
Type in all cases: functional
Enterococcus faecium = assay: Minimum inhibitory concentration against vancomycin resistant Enterococcus faecium (VRE)
Staphylococcus aureus [1] = assay: Minimum inhibitory concentration against methicillin resistant staphylococcus aureus (MRSA)
Staphylococcus aureus [2] = assay: The compound was evaluated in vitro for minimum inhibitory concentration against staphylococcus aureus HP-5836
Staphylococcus aureus [3] = assay: The compound was evaluated in vitro for minimum inhibitory concentration against staphylococcus aureus HP-5827

| SMILES | MIC (Enterococcus faecium) [µg/mL] | MIC (Staphylococcus aureus [1]) [µg/mL] | MIC (Staphylococcus aureus [2]) [µg/mL] | MIC (Staphylococcus aureus [3]) [µg/mL] |
| --- | --- | --- | --- | --- |
| Clc1ccc2ccc(-c3c[nH]c4ccc(Br)cc34)nc2c1 | > 25 | 0.6 (≈ 1.68 µM) | – | – |
| NCCNC(=O)c1cc(-c2c[nH]c3ccc(Br)cc23)nc2ccc(Cl)cc12.O=C(O)C(F)(F)F | 3.13 | 1.56 | – | – |
| Clc1ccc2c(Cl)cc(-c3c[nH]c4ccc(Br)cc34)nc2c1 | 3.13 (≈ 7.98 µM) | < 0.39 | – | – |
| Clc1ccc2nc(-c3c[nH]c4ccccc34)ccc2c1 | > 25 | 5 (≈ 17.9 µM) | – | – |
| Oc1ccc2[nH]cc(-c3ccc4cc(Cl)ccc4n3)c2c1 | > 25 | 12.5 (≈ 42.4 µM) | – | – |
| Clc1ccc2nc(-c3c[nH]c4c(Cl)cccc34)ccc2c1 | > 25 | > 25 | – | – |
| OCc1cc(-c2c[nH]c3ccc(Br)cc23)nc2cc(Cl)ccc12 | 2.5 (≈ 6.45 µM) | 0.31 (≈ 0.8 µM) | – | – |
| Clc1ccc2nc(-c3c[nH]c4ccc(Cl)cc34)ccc2c1 | > 25 | 0.78 (≈ 2.49 µM) | – | – |
| NCCNC(=O)c1cc(-c2c[nH]c3ccc(Br)cc23)nc2c(Cl)cccc12.O=C(O)C(F)(F)F | 3.13 | 1.56 | – | – |
| O=C(Oc1ccc2[nH]cc(-c3ccc4cc(Cl)ccc4n3)c2c1)c1ccccc1 | > 25 | 1.56 (≈ 3.91 µM) | – | – |
| NCCNC(=O)c1cc(-c2c[nH]c3ccc(Br)cc23)nc2cc(Cl)cc(Cl)c12.O=C(O)C(F)(F)F | 1.56 | 0.78 | – | – |
| NCCNC(=O)c1cc(-c2c[nH]c3ccc(Br)cc23)nc2cc(Cl)c(C#CCN3CCCCC3)cc12.O=C(O)C(F)(F)F | 6.25 | 3.13 | 3.13 | 1.56 |
| NCc1cc(-c2c[nH]c3ccc(Br)cc23)nc2cc(Cl)ccc12.O=C(O)C(F)(F)F | 1.56 | 0.78 | 0.39 | 0.39 |
| NCCNC(=O)c1cc(-c2c[nH]c3ccc(Br)cc23)nc2cc3c(cc12)OCO3.O=C(O)C(F)(F)F | – | 12.5 | – | – |
| Clc1ccc2nc(-c3c[nH]c4ccc(Br)cc34)ccc2c1 | > 25 | 0.62 (≈ 1.73 µM) | – | – |
| COc1ccc2[nH]cc(-c3ccc4cc(Cl)ccc4n3)c2c1 | > 25 | > 25 | – | – |
| NCCNC(=O)c1cc(-c2c[nH]c3ccc(Br)cc23)nc2ccccc12.O=C(O)C(F)(F)F | 25 | 12.5 | – | – |
| NCCNC(=O)c1cc(-c2c[nH]c3ccc(Br)cc23)nc2c(Cl)c(Cl)ccc12.O=C(O)C(F)(F)F | 0.78 | 0.78 | – | – |
| Fc1ccc2[nH]cc(-c3ccc4cc(Cl)ccc4n3)c2c1 | 12.5 (≈ 42.1 µM) | 0.78 (≈ 2.63 µM) | – | – |
| Fc1ccc2c(-c3ccc4cc(Cl)ccc4n3)c[nH]c2c1 | 6.25 (≈ 21.1 µM) | 1.56 (≈ 5.26 µM) | – | – |
| NCCNC(=O)c1cc(-c2c[nH]c3ccc(Br)cc23)nc2cc(Cl)ccc12.O=C(O)C(F)(F)F | 1.56 | 0.78 | 0.39 | 0.78 |
| O=C(O)c1cc(-c2c[nH]c3ccc(Br)cc23)nc2cc(Cl)ccc12 | 25 (≈ 62.2 µM) | 25 (≈ 62.2 µM) | – | – |
| N#Cc1ccc2[nH]cc(-c3ccc4cc(Cl)ccc4n3)c2c1 | > 25 | > 25 | – | – |
| NCCNC(=O)c1cc(-c2c[nH]c3ccc(Br)cc23)nc2c(F)cccc12.O=C(O)C(F)(F)F | 12.5 | 6.25 | – | – |
| NCCNC(=O)c1cc(-c2c[nH]c3ccc(Br)cc23)nc2cc(F)ccc12.O=C(O)C(F)(F)F | 3.13 | 3.13 | – | – |
| Fc1cccc2[nH]cc(-c3ccc4cc(Cl)ccc4n3)c12 | > 25 | > 25 | – | – |
